Patent US11053204B2, “Pyrimidinyloxy benzene derivatives as herbicides” (FMC Corporation, priority 2015, dated 2021)

Legend:
Format in all cases: in vivo
[1] = tested on: Italian ryegrass (Lolium multiflorum); test: Test A preemergence, visual injury rating; conditions: 0 to 100 scale (0 no effect, 100 complete control)
Excerpt: (§1) Seeds of plant species selected from barnyardgrass (Echinochloa crus-galli), kochia (Kochia scoparia), ragweed (common ragweed, Ambrosia elatior), Italian ryegrass (Lolium multiflorum), large (Lg) crabgrass (Digitaria sanguinalis), giant foxtail (Setaria faberii), morningglory (Ipomoea spp.), pigweed (Amaranthus retroflexus), velvetleaf (Abutilon theophrasti), wheat (Triticum aestivum), and corn (Zea mays) were planted into a blend of loam soil and sand and treated preemergence with a directed soil spray using test chemicals formulated in a non-phytotoxic solvent mixture which included a surfactant.
(§2) At the same time, plants selected from these crop and weed species and also blackgrass (Alopecurus myosuroides), and galium (catchweed bedstraw, Galium aparine) were planted in pots containing the same blend of loam soil and sand and treated with postemergence applications of test chemicals formulated in the same manner. Plants ranged in height from 2 to 10 cm and were in the one- to two-leaf stage for the postemergence treatment. Treated plants and untreated controls were maintained in a greenhouse for approximately 10 days, after which time all treated plants were compared to untreated controls and visually evaluated for injury. Plant response ratings, summarized in Table A, are based on a 0 to 100 scale where 0 is no effect and 100 is complete control. A dash (-) response means no test result.

[2] = tested on: barnyardgrass (Echinochloa crus-galli); test: Test A preemergence, visual injury rating; conditions: 0 to 100 scale (0 no effect, 100 complete control)
Excerpt: as §1, §2

[3] = tested on: giant foxtail (Setaria faberii); test: Test A preemergence, visual injury rating; conditions: 0 to 100 scale (0 no effect, 100 complete control)
Excerpt: as §1, §2

kochia (Kochia scoparia) [4] = test: Test A preemergence, visual injury rating; conditions: 0 to 100 scale (0 no effect, 100 complete control)
Excerpt: as §1, §2

[5] = tested on: pigweed (Amaranthus retroflexus); test: Test A preemergence, visual injury rating; conditions: 0 to 100 scale (0 no effect, 100 complete control)
Excerpt: as §1, §2

[6] = tested on: ragweed (common ragweed, Ambrosia elatior); test: Test A preemergence, visual injury rating; conditions: 0 to 100 scale (0 no effect, 100 complete control)
Excerpt: as §1, §2

[7] = tested on: Italian ryegrass (Lolium multiflorum); test: Test A postemergence, visual injury rating; conditions: 0 is no effect, 100 is complete control
Excerpt: as §1, §2

[8] = tested on: barnyardgrass (Echinochloa crus-galli); test: Test A postemergence, visual injury rating; conditions: 0 is no effect, 100 is complete control
Excerpt: as §1, §2

[9] = tested on: blackgrass (Alopecurus myosuroides); test: Test A postemergence, visual injury rating; conditions: 0 is no effect, 100 is complete control
Excerpt: as §1, §2

corn (Zea mays) = test: Test A postemergence, visual injury rating; conditions: 0 is no effect, 100 is complete control
Excerpt: as §1, §2

[10] = tested on: galium (catchweed bedstraw, Galium aparine); test: Test A postemergence, visual injury rating; conditions: 0 is no effect, 100 is complete control
Excerpt: as §1, §2

[11] = tested on: giant foxtail (Setaria faberii); test: Test A postemergence, visual injury rating; conditions: 0 is no effect, 100 is complete control
Excerpt: as §1, §2

kochia (Kochia scoparia) [12] = test: Test A postemergence, visual injury rating; conditions: 0 is no effect, 100 is complete control
Excerpt: as §1, §2

[13] = tested on: pigweed (Amaranthus retroflexus); test: Test A postemergence, visual injury rating; conditions: 0 is no effect, 100 is complete control
Excerpt: as §1, §2

[14] = tested on: ragweed (common ragweed, Ambrosia elatior); test: Test A postemergence, visual injury rating; conditions: 0 is no effect, 100 is complete control
Excerpt: as §1, §2

[15] = tested on: wheat (Triticum aestivum); test: Test A postemergence, visual injury rating; conditions: 0 is no effect, 100 is complete control
Excerpt: as §1, §2

[16] = tested on: barnyardgrass (Echinochloa crus-galli); test: Test B flooded paddy test, plant response rating; conditions: 250 g ai/ha; Flood; scale of 0 to 100 where 0 is no effect and 100 is complete control; 13 to 15 days
Excerpt: (§3) At time of treatment, test pots were flooded to 3 cm above the soil surface, treated by application of test compounds directly to the paddy water, and then maintained at that water depth for the duration of the test. Treated plants and controls were maintained in a greenhouse for 13 to 15 days, after which time all species were compared to controls and visually evaluated. […] A dash (-) response means no test result.

[17] = tested on: ducksalad (Heteranthera limosa); test: Test B flooded paddy test, plant response rating; conditions: 250 g ai/ha; Flood; scale of 0 to 100 where 0 is no effect and 100 is complete control; 13 to 15 days
Excerpt: as §3

rice (Oryza sativa) = test: Test B flooded paddy test, plant response rating; conditions: 250 g ai/ha; Flood; scale of 0 to 100 where 0 is no effect and 100 is complete control; 13 to 15 days
Excerpt: as §3

[18] = tested on: sedge, umbrella (small-flower umbrella sedge, Cyperus difformis); test: Test B flooded paddy test, plant response rating; conditions: 250 g ai/ha; Flood; scale of 0 to 100 where 0 is no effect and 100 is complete control; 13 to 15 days
Excerpt: as §3

| SMILES | Ryegrass, Italian plant response rating ([1]; 125 g ai/ha) | Ryegrass, Italian plant response rating ([1]; 500 g ai/ha) | Barnyardgrass plant response rating ([2]; 125 g ai/ha) | Barnyardgrass plant response rating ([2]; 500 g ai/ha) | Foxtail, Giant plant response rating ([3]; 125 g ai/ha) | Foxtail, Giant plant response rating ([3]; 500 g ai/ha) | Kochia plant response rating (kochia (Kochia scoparia) [4]; 125 g ai/ha) | Kochia plant response rating (kochia (Kochia scoparia) [4]; 500 g ai/ha) | Pigweed plant response rating ([5]; 125 g ai/ha) | Pigweed plant response rating ([5]; 500 g ai/ha) | Ragweed plant response rating ([6]; 125 g ai/ha) | Ragweed plant response rating ([6]; 500 g ai/ha) | Ryegrass, Italian plant response rating (0 to 100 scale) ([7]; 125 g ai/ha) | Ryegrass, Italian plant response rating (0 to 100 scale) ([7]; 500 g ai/ha) | Barnyardgrass plant response rating (0 to 100 scale) ([8]; 125 g ai/ha) | Barnyardgrass plant response rating (0 to 100 scale) ([8]; 500 g ai/ha) | Blackgrass plant response rating (0 to 100 scale) ([9]; 125 g ai/ha) | Blackgrass plant response rating (0 to 100 scale) ([9]; 500 g ai/ha) | Corn plant response rating (0 to 100 scale) (corn (Zea mays); 125 g ai/ha) | Corn plant response rating (0 to 100 scale) (corn (Zea mays); 500 g ai/ha) | also measured |
| --- | --- | --- | --- | --- | --- | --- | --- | --- | --- | --- | --- | --- | --- | --- | --- | --- | --- | --- | --- | --- | --- |
| N#CCOC(=O)c1c(Br)cccc1Oc1ncc(Cl)cn1 [Compound 40] | 0 | 0 | 0 | 50 | 20 | 100 | 60 | 90 | 40 | 100 | 0 | 0 | 0 | 0 | 0 | 20 | 10 | 20 | 20 | 20 | Galium plant response rating (0 to 100 scale) ([10]; 125 g ai/ha): 30; Galium plant response rating (0 to 100 scale) ([10]; 500 g ai/ha): 40; Foxtail, Giant plant response rating (0 to 100 scale) ([11]; 125 g ai/ha): 10; Foxtail, Giant plant response rating (0 to 100 scale) ([11]; 500 g ai/ha): 40; Kochia plant response rating (0 to 100 scale) (kochia (Kochia scoparia) [12]; 125 g ai/ha): 70; Kochia plant response rating (0 to 100 scale) (kochia (Kochia scoparia) [12]; 500 g ai/ha): 100; Pigweed plant response rating (0 to 100 scale) ([13]; 125 g ai/ha): 70; Pigweed plant response rating (0 to 100 scale) ([13]; 500 g ai/ha): 100; Ragweed plant response rating (0 to 100 scale) ([14]; 125 g ai/ha): 0; Ragweed plant response rating (0 to 100 scale) ([14]; 500 g ai/ha): 0; Wheat plant response rating (0 to 100 scale) ([15]; 125 g ai/ha): 0; Wheat plant response rating (0 to 100 scale) ([15]; 500 g ai/ha): 20 |
| O=C(OCCC(F)(F)F)c1c(F)cccc1Oc1ncc(Br)cn1 [Compound 41] | 0 | 0 | 0 | 0 | 0 | 0 | 30 | 30 | 30 | 40 | 50 | 80 | 0 | 0 | 0 | 0 | 0 | 0 | 0 | 0 | Galium plant response rating (0 to 100 scale) ([10]; 125 g ai/ha): 0; Galium plant response rating (0 to 100 scale) ([10]; 500 g ai/ha): 0; Foxtail, Giant plant response rating (0 to 100 scale) ([11]; 125 g ai/ha): 0; Foxtail, Giant plant response rating (0 to 100 scale) ([11]; 500 g ai/ha): 0; Kochia plant response rating (0 to 100 scale) (kochia (Kochia scoparia) [12]; 125 g ai/ha): 20; Kochia plant response rating (0 to 100 scale) (kochia (Kochia scoparia) [12]; 500 g ai/ha): 60; Pigweed plant response rating (0 to 100 scale) ([13]; 125 g ai/ha): 90; Pigweed plant response rating (0 to 100 scale) ([13]; 500 g ai/ha): 90; Ragweed plant response rating (0 to 100 scale) ([14]; 125 g ai/ha): 0; Ragweed plant response rating (0 to 100 scale) ([14]; 500 g ai/ha): 10; Wheat plant response rating (0 to 100 scale) ([15]; 125 g ai/ha): 0; Wheat plant response rating (0 to 100 scale) ([15]; 500 g ai/ha): 0 |
| O=C(OCCC(F)(F)F)c1c(F)cccc1Oc1ncc(Cl)cn1 [Compound 42] | 0 | 0 | 0 | 0 | 0 | 0 | 0 | 0 | 0 | 30 | 0 | 0 | 0 | 0 | 0 | 0 | 0 | 0 | 20 | 30 | Galium plant response rating (0 to 100 scale) ([10]; 125 g ai/ha): 0; Galium plant response rating (0 to 100 scale) ([10]; 500 g ai/ha): 0; Foxtail, Giant plant response rating (0 to 100 scale) ([11]; 125 g ai/ha): 0; Foxtail, Giant plant response rating (0 to 100 scale) ([11]; 500 g ai/ha): 0; Kochia plant response rating (0 to 100 scale) (kochia (Kochia scoparia) [12]; 125 g ai/ha): 30; Kochia plant response rating (0 to 100 scale) (kochia (Kochia scoparia) [12]; 500 g ai/ha): 60; Pigweed plant response rating (0 to 100 scale) ([13]; 125 g ai/ha): 80; Pigweed plant response rating (0 to 100 scale) ([13]; 500 g ai/ha): 90; Ragweed plant response rating (0 to 100 scale) ([14]; 125 g ai/ha): 0; Ragweed plant response rating (0 to 100 scale) ([14]; 500 g ai/ha): 0; Wheat plant response rating (0 to 100 scale) ([15]; 125 g ai/ha): 0; Wheat plant response rating (0 to 100 scale) ([15]; 500 g ai/ha): 0 |
| O=C(OCCCC(F)(F)F)c1c(Oc2ncc(Cl)cn2)cccc1C(F)(F)F [Compound 65] | 10 | 30 | 30 | 100 | 100 | 100 | 60 | 90 | 100 | 100 | 0 | 80 | 0 | 0 | 30 | 70 | 20 | 40 | 10 | 20 | Galium plant response rating (0 to 100 scale) ([10]; 125 g ai/ha): 20; Galium plant response rating (0 to 100 scale) ([10]; 500 g ai/ha): 70; Foxtail, Giant plant response rating (0 to 100 scale) ([11]; 125 g ai/ha): 40; Foxtail, Giant plant response rating (0 to 100 scale) ([11]; 500 g ai/ha): 90; Pigweed plant response rating (0 to 100 scale) ([13]; 125 g ai/ha): 90; Pigweed plant response rating (0 to 100 scale) ([13]; 500 g ai/ha): 100; Ragweed plant response rating (0 to 100 scale) ([14]; 125 g ai/ha): 10; Ragweed plant response rating (0 to 100 scale) ([14]; 500 g ai/ha): 30; Wheat plant response rating (0 to 100 scale) ([15]; 125 g ai/ha): 0; Wheat plant response rating (0 to 100 scale) ([15]; 500 g ai/ha): 0; Plant response rating, Barnyardgrass [16]: 0; Plant response rating, Ducksalad [17]: 70; Plant response rating, Rice (rice (Oryza sativa)): 0; Plant response rating, Sedge, Umbrella [18]: 85 |
